Experimental data taken from patent US12576075B2, “Combination therapies for treating cancer” (Institute For Cancer Research, priority 2018, dated 2026).

Columns and labels:
PNXC0010 RCC tumors = format: in vivo; conditions: PNX0010 subcutaneous xenografts, C.B17/lcrscid mice, 40 mg/kg each drug, orally 3 times/week
Protocol: PNX0010 subcutaneous xenografts were established in 6 week old male C.B17/lcrscid mice. The mice were treated orally 3 times/week with (i) 10% 2-hydroxypropyl-b-cyclodextrin in PBS (control); (ii) sunitinib (40 mg/kg); (iii) lonafarnib (40 mg/kg); or with sunitinib and lonafarnib combined (n=5 mice/group). Tumor volumes were calculated by the formula: (volume=0.52×(width)2×length).

786-O RCC cells = assay: Cell viability, […]-BLUE assay, 786-O; format: cell-based, human; design: dose or concentration left out as unconfirmed; conditions: 72 hours
Protocol: (§1) Treatment with lonafarnib can reinstate sensitivity of RCC cells to TKIs. Pharmacological inhibition of FTase enhances the antitumor activity of sunitinib. Referring to FIG. 3, in Panel A, PNX0010 and 786-O RCC cells were treated with various combinations of lonafarnib ([…]), sunitinib ([…]), and pazopanib ([…]) for 72 hours. Cell viability was examined using Blue […]-BLUE® assay (PROMEGA®). In Panel B, 786-O and PNX0010 RCC cells were treated with lonafarnib ([…]) and/or sunitinib ([…]) for 24 hours. DNA fragmentation was examined by the APO-BRDU kit (The Phoenix Flow Systems) followed by flow cytometry analysis.

786-O cells [1] = assay: Dose-dependent anti-proliferative effects on 786-O cells (dose response); format: cell-based, human; conditions: for EC50: Homo sapiens, 786-0, single drug dose response, read-out: ED50 (the source's name); for ED75 / ED90: single drug dose response
PNX0010 RCC cells = assay: Cell viability, […]-BLUE assay, PNX0010; format: cell-based, human; design: dose or concentration left out as unconfirmed; conditions: 72 hours
Protocol: as §1

786-O cells [2] = assay: Lysosomal sequestration of sunitinib by fluorescent microscopy; format: cell-based, human; design: Sequestration of sunitinib within lysosomes: dose or concentration left out as unconfirmed

| Structure (SMILES) | Growth of xenograft tumors (tumor volume) (PNXC0010 RCC tumors) | Effect on cell viability (786-O RCC cells) | EC50 (786-O cells [1]) | ED75 (786-O cells [1]) | ED90 (786-O cells [1]) | Effect on cell viability (PNX0010 RCC cells) | Sequestration of sunitinib within lysosomes (786-O cells [2]; 60 minutes) | Total cellular accumulation of sunitinib (786-O cells [2]; effect of lonafarnib, data not shown) |
| --- | --- | --- | --- | --- | --- | --- | --- | --- |
| NC(=O)N1CCC(CC(=O)N2CCC([C@H]3c4ncc(Br)cc4CCc4cc(Cl)cc(Br)c43)CC2)CC1 [Lonafarnib, lonafarnib] | moderate decrease | modest effect | 3.8 µM | 63.3 µM | 5672.0 µM | modest effect | significantly reduced | not affected |
| CNC(=O)c1ccccc1Sc1ccc2c(/C=C/c3ccccn3)n[nH]c2c1 [Axitinib, axitinib] | – | – | – | 7.5 µM | 65.1 µM | – | – | – |
| CCN(CC)CCNC(=O)c1c(C)[nH]c(/C=C2\C(=O)Nc3ccc(F)cc32)c1C [Sunitinib, sunitinib] | – | – | 2.4 µM | 6.7 µM | 44.3 µM | – | – | – |
